Data published in the supplement of paper PMC8967900.

How the values were obtained:
Assay in all cases: selective drug sensitivity score (sDSS, relative to normal bone marrow) (sDSS (score)); higher = more potent and effective on the cell line relative to normal bone marrow cells
Conditions in all cases: 72 h
MN-60 = test system: MN-60
COG-LL-317 = test system: COG-LL-317
LC4-1 = test system: LC4-1
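Further: ALL cell lines in 384-well plates, five doses spanning 10,000-fold, each plate scaled between vehicle and 100 µmol/L benzalkonium chloride controls, sDSS an adapted area-under-curve metric.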

With `CC(C)(C)c1cc(NC(=O)Nc2ccc(-c3cn4c(n3)sc3cc(OCCN5CCOCC5)ccc34)cc2)no1` [Quizartinib] (top concentration 1000 nM) the “selective drug sensitivity score” value (MN-60) was -1.52, the “selective drug sensitivity score” value (COG-LL-317) was -0.02 and the “selective drug sensitivity score” value (LC4-1) was 4.78.

`Cc1c(N)nc([C@H](CC(N)=O)NC[C@H](N)C(N)=O)nc1C(=O)N[C@H](C(=O)N[C@H](C)[C@@H](O)[C@H](C)C(=O)N[C@H](C(=O)NCCc1nc(-c2nc(C(=O)NCCC[S+](C)C)cs2)cs1)[C@@H](C)O)[C@@H](O[C@@H]1O[C@@H](CO)[C@@H](O)[C@H](O)[C@@H]1O[C@H]1O[C@H](CO)[C@@H](O)[C@H](OC(N)=O)[C@@H]1O)c1c[nH]cn1` [Bleomycin] (top concentration 10000 nM) was tested, and the “selective drug sensitivity score” value (MN-60) was -1.86, the “selective drug sensitivity score” value (COG-LL-317) was 5.14 and the “selective drug sensitivity score” value (LC4-1) was 0.54.

`COc1ccc(CCc2nc3cc(-c4c(C)noc4C)ccc3n2C[C@H](C)N2CCOCC2)cc1Cl` [SGC-CBP30] (top concentration 25000 nM) was tested, and the “selective drug sensitivity score” value (MN-60) was 2.78, the “selective drug sensitivity score” value (COG-LL-317) was 5.98 and the “selective drug sensitivity score” value (LC4-1) was 7.48.

With `CC#CC(=O)N1CC[C@@H](n2c(=O)n(-c3ccc(Oc4ccccc4)cc3)c3c(N)ncnc32)C1` [Tirabrutinib] (top concentration 1000 nM) the “selective drug sensitivity score” value (MN-60) was 0, the “selective drug sensitivity score” value (COG-LL-317) was 0 and the “selective drug sensitivity score” value (LC4-1) was 0.7.

`CS(=O)(=O)c1ccc(-c2cnc(N)c(C(=O)Nc3ccccc3)n2)cc1` [VE-821] (top concentration 10000 nM) was tested, and the “selective drug sensitivity score” value (MN-60) was -0.66, the “selective drug sensitivity score” value (COG-LL-317) was 12.7 and the “selective drug sensitivity score” value (LC4-1) was 4.64.

In the case of `O=C(/C=C/c1cccnc1)NCCCCC1CCN(C(=O)c2ccccc2)CC1` [Daporinad] (top concentration 1000 nM), the “selective drug sensitivity score” value (MN-60) was 6.66, the “selective drug sensitivity score” value (COG-LL-317) was 17.7 and the “selective drug sensitivity score” value (LC4-1) was 14.2.

In the case of `CCOC(=O)CCNc1cc(N2CCc3ccccc3CC2)nc(-c2ccccn2)n1` [GSK-J4] (top concentration 100000 nM), the “selective drug sensitivity score” value (MN-60) was -6.58, the “selective drug sensitivity score” value (COG-LL-317) was -2.78 and the “selective drug sensitivity score” value (LC4-1) was -9.58.

`Cc1cnc(Nc2ccc(OCCN3CCCC3)cc2)nc1Nc1cccc(S(=O)(=O)NC(C)(C)C)c1` [Fedratinib] (top concentration 10000 nM) was tested, and the “selective drug sensitivity score” value (MN-60) was -4.06, the “selective drug sensitivity score” value (COG-LL-317) was -3.36 and the “selective drug sensitivity score” value (LC4-1) was -0.36.

With `C[C@@H](Oc1cc(-n2cnc3ccc(CN4CCN(C)CC4)cc32)sc1C(N)=O)c1ccccc1C(F)(F)F` (top concentration 10000 nM) the “selective drug sensitivity score” value (MN-60) was 3.72, the “selective drug sensitivity score” value (COG-LL-317) was 25.4 and the “selective drug sensitivity score” value (LC4-1) was 22.6.

With `Cc1sc2c(c1C)C(c1ccc(Cl)cc1)=N[C@@H](CC(=O)OC(C)(C)C)c1nnc(C)n1-2` [JQ1] (top concentration 10000 nM) the “selective drug sensitivity score” value (MN-60) was 6.62, the “selective drug sensitivity score” value (COG-LL-317) was 6.62 and the “selective drug sensitivity score” value (LC4-1) was 5.02.

`CC(=O)c1cnc2ccc(-c3cc(Cl)c(O)c(Cl)c3)nc2c1N[C@H]1CC[C@H](CN(C)C)CC1` [OTS167] (top concentration 1000 nM) was tested, and the “selective drug sensitivity score” value (MN-60) was -1.82, the “selective drug sensitivity score” value (COG-LL-317) was 3.58 and the “selective drug sensitivity score” value (LC4-1) was -3.42.

`CNC(=O)c1ccccc1Nc1nc(Nc2ccc3c(c2OC)CCC[C@H](N2CCN(CCO)CC2)C3)ncc1Cl` (top concentration 5000 nM) was tested, and the “selective drug sensitivity score” value (MN-60) was -2.24, the “selective drug sensitivity score” value (COG-LL-317) was -2.14 and the “selective drug sensitivity score” value (LC4-1) was 2.96.

In the case of `COc1cc2ncnc(Oc3cccc(NC(=O)Nc4cc(C(C)(C)C(F)(F)F)on4)c3)c2cc1OC` (top concentration 10000 nM), the “selective drug sensitivity score” value (MN-60) was 0, the “selective drug sensitivity score” value (COG-LL-317) was 0 and the “selective drug sensitivity score” value (LC4-1) was 1.1.

For `S=C(NCc1ccc2c(c1)OCO2)N1CCN(c2ncnc3c2oc2ccccc23)CC1` [Amuvatinib] (top concentration 10000 nM), the “selective drug sensitivity score” value (MN-60) was 5.46, the “selective drug sensitivity score” value (COG-LL-317) was 0.96 and the “selective drug sensitivity score” value (LC4-1) was 4.56.

For `O=C(c1ccc(F)c(F)c1Nc1ccc(I)cc1F)N1CC(O)([C@@H]2CCCCN2)C1` [Cobimetinib] (top concentration 1000 nM), the “selective drug sensitivity score” value (MN-60) was -3.68, the “selective drug sensitivity score” value (COG-LL-317) was -3.68 and the “selective drug sensitivity score” value (LC4-1) was -0.68.

`NC(=O)Nc1cc(-c2cccc(F)c2)sc1C(=O)N[C@H]1CCCNC1` [AZD7762] (top concentration 1000 nM) was tested, and the “selective drug sensitivity score” value (MN-60) was -4.9, the “selective drug sensitivity score” value (COG-LL-317) was 7.6 and the “selective drug sensitivity score” value (LC4-1) was -0.5.

In the case of `Cc1ccc(NC(=O)c2ccc(CN3CCN(C)CC3)cc2)cc1Nc1nccc(-c2cccnc2)n1` [Imatinib] (top concentration 10000 nM), the “selective drug sensitivity score” value (MN-60) was -0.44, the “selective drug sensitivity score” value (COG-LL-317) was 1.36 and the “selective drug sensitivity score” value (LC4-1) was 0.36.

For `Nc1nc2[nH]cc(CCc3ccc(C(=O)N[C@@H](CCC(=O)O)C(=O)O)cc3)c2c(=O)[nH]1` [Pemetrexed] (top concentration 10000 nM), the “selective drug sensitivity score” value (MN-60) was 11.6, the “selective drug sensitivity score” value (COG-LL-317) was 25.1 and the “selective drug sensitivity score” value (LC4-1) was 21.

For `CO[C@H]1CC[C@H](N2C(=O)CNc3ncc(-c4ccc(C(C)(C)O)nc4)nc32)CC1` [CC-223] (top concentration 10000 nM), the “selective drug sensitivity score” value (MN-60) was 1.32, the “selective drug sensitivity score” value (COG-LL-317) was -0.48 and the “selective drug sensitivity score” value (LC4-1) was 0.42.

`CC(=O)N(O)CCCCCNC(=O)CCC(=O)N(O)CCCCCNC(=O)CCC(=O)N(O)CCCCCN` [Deferoxamine] (top concentration 10000 nM) was tested, and the “selective drug sensitivity score” value (MN-60) was 5.16, the “selective drug sensitivity score” value (COG-LL-317) was 18.4 and the “selective drug sensitivity score” value (LC4-1) was 1.76.

With `CC(C)C[C@@H](C(=O)N[C@H](C(=O)OC1CCCC1)c1ccccc1)[C@H](O)C(=O)NO` [Tosedostat] (top concentration 10000 nM) the “selective drug sensitivity score” value (MN-60) was -2.44, the “selective drug sensitivity score” value (COG-LL-317) was 14.9 and the “selective drug sensitivity score” value (LC4-1) was 2.26.

In the case of `C[C@H](Nc1ncnc2[nH]cnc12)c1cc2ccc(F)cc2nc1-c1ccccn1` [AMG319] (top concentration 1000 nM), the “selective drug sensitivity score” value (MN-60) was -1.42, the “selective drug sensitivity score” value (COG-LL-317) was -1.42 and the “selective drug sensitivity score” value (LC4-1) was -1.42.

`C1=N/C2=N/c3ccc(OCCN4CCCC4)c(c3)COC/C=C/COCc3cccc(c3)C(=C1)N2` [Pacritinib] (top concentration 10000 nM) was tested, and the “selective drug sensitivity score” value (MN-60) was -9.6, the “selective drug sensitivity score” value (COG-LL-317) was -8.3 and the “selective drug sensitivity score” value (LC4-1) was -5.6.

`COc1c(OCCCN2CCOCC2)ccc2c1N=C(NC(=O)c1cnc(N)nc1)N1CCN=C21` [Copanlisib] (top concentration 1000 nM) was tested, and the “selective drug sensitivity score” value (MN-60) was 0.48, the “selective drug sensitivity score” value (COG-LL-317) was 6.08 and the “selective drug sensitivity score” value (LC4-1) was -4.22.

With `Cc1ccc(C(=O)Nc2ccc(CN3CCN(C)CC3)c(C(F)(F)F)c2)cc1C#Cc1cnc2cccnn12` [Ponatinib] (top concentration 1000 nM) the “selective drug sensitivity score” value (MN-60) was -0.58, the “selective drug sensitivity score” value (COG-LL-317) was -1.98 and the “selective drug sensitivity score” value (LC4-1) was 0.32.

In the case of `Cc1cccc(-c2[nH]c(CNc3ccccc3F)nc2-c2ccc3ncnn3c2)n1` [Vactosertib (TEW-7197)] (top concentration 2500 nM), the “selective drug sensitivity score” value (MN-60) was -0.1, the “selective drug sensitivity score” value (COG-LL-317) was -0.3 and the “selective drug sensitivity score” value (LC4-1) was -0.1.

For `CNC(=O)c1ccccc1Sc1ccc2c(/C=C/c3ccccn3)n[nH]c2c1` [Axitinib] (top concentration 10000 nM), the “selective drug sensitivity score” value (MN-60) was -2.94, the “selective drug sensitivity score” value (COG-LL-317) was 8.26 and the “selective drug sensitivity score” value (LC4-1) was 11.8.

`CN(C)Cc1c(C(=O)NCCOc2ccc(C(=O)NO)cc2)oc2ccccc12` [Abexinostat] (top concentration 10000 nM) was tested, and the “selective drug sensitivity score” value (MN-60) was -3.04, the “selective drug sensitivity score” value (COG-LL-317) was 2.36 and the “selective drug sensitivity score” value (LC4-1) was 4.36.

With `CC(C)NC[C@@H](C(=O)N1CCN(c2ncnc3c2[C@H](C)C[C@H]3O)CC1)c1ccc(Cl)cc1` [Ipatasertib] (top concentration 10000 nM) the “selective drug sensitivity score” value (MN-60) was -1.8, the “selective drug sensitivity score” value (COG-LL-317) was 11 and the “selective drug sensitivity score” value (LC4-1) was -0.6.

For `CC[C@@H]1C(=O)N(C)c2cnc(Nc3ccc(C(=O)N[C@H]4CC[C@H](N5CCN(CC6CC6)CC5)CC4)cc3OC)nc2N1C(C)C` [Volasertib] (top concentration 1000 nM), the “selective drug sensitivity score” value (MN-60) was 0.4, the “selective drug sensitivity score” value (COG-LL-317) was 16.7 and the “selective drug sensitivity score” value (LC4-1) was 13.4.
